Laboratory results as given in ChEMBL document CHEMBL1136150, “Hypocholesterolemic activity of hesperetin derivatives” (2003).

What was measured:
Format in all cases: functional
[1] = species on record: Mus musculus; experiment: Body weight of the high cholesterol-fed mice after 10 day
[2] = species on record: Mus musculus; experiment: Effect on plasma total cholesterol in high cholesterol-fed mice after 0 day
[3] = species on record: Mus musculus; experiment: Body weight of the high cholesterol-fed mice after 0 day
[4] = species on record: Mus musculus; experiment: Effect on plasma total cholesterol in high cholesterol-fed mice after 10 day

Structure (SMILES) | Body weight [1] [g] | Total cholesterol [2] [mg/dL] | Body weight [3] [g] | Total cholesterol [4] [mg/dL]
CCCCCCCCCCCCOc1cc(O)c2c(c1)OC(c1ccc(OC)c(O)c1)CC2=O (configuration not stated) | 22.4 | 95 | 22 | 189
CCCCCCCCCCCC(=O)Oc1cc(O)c2c(c1)OC(c1ccc(OC)c(O)c1)CC2=O (configuration not stated) | 22.4 | 95 | 22.4 | 192
CCCCCCCCCCCCCCCCCC(=O)Oc1cc(O)c2c(c1)OC(c1ccc(OC)c(O)c1)CC2=O (configuration not stated) | 23.7 | 95 | 22.3 | 214
CCOc1cc(O)c2c(c1)OC(c1ccc(OC)c(O)c1)CC2=O (configuration not stated) | 22.5 | 102 | 21.9 | 218
CCCCCCCC/C=C\CCCCCCCCOc1cc(O)c2c(c1)OC(c1ccc(OC)c(O)c1)CC2=O (configuration not stated) | 23.7 | 96 | 23.4 | 192
CCCCCCCCCCCCCCCCCCOc1cc(O)c2c(c1)OC(c1ccc(OC)c(O)c1)CC2=O (configuration not stated) | 24.4 | 101 | 23.1 | 208
COc1ccc(C2CC(=O)c3c(O)cc(OC(C)=O)cc3O2)cc1O (configuration not stated) | 23.7 | 96 | 23.4 | 220
CCCCCCCCCCCCCCCCOc1cc(O)c2c(c1)OC(c1ccc(OC)c(O)c1)CC2=O (configuration not stated) | 23 | 93 | 22.5 | 202
CCCCCCCCCCCCCCCC(=O)Oc1cc(O)c2c(c1)OC(c1ccc(OC)c(O)c1)CC2=O (configuration not stated) | 23.4 | 97 | 21.7 | 209
CCCCCCCC/C=C\CCCCCCCC(=O)Oc1cc(O)c2c(c1)OC(c1ccc(OC)c(O)c1)CC2=O (configuration not stated) | 23.8 |  | 22.3 | 
COc1ccc([C@@H]2CC(=O)c3c(O)cc(O)cc3O2)cc1O [HESPERETIN] | 25.6 | 103 | 25.4 | 216
